From patent publication US8877748B2, “Heterocyclic fused anthraquinone derivatives, manufacturing method and pharmaceutical composition using thereof” (National Defense Medical Center, priority 2012, dated 2014)

Tests used:
[1] = test system: UACC-62; test: NCI one-dose screening, melanoma UACC-62; type: cell-based, human; conditions: UACC-62, 10 μM
[2] = test system: SF-539; test: NCI one-dose screening, CNS cancer SF-539; type: cell-based, human; conditions: SF-539, 10 μM
[3] = test system: HS 578-T; test: NCI one-dose screening, breast cancer HS 578-T; type: cell-based, human; conditions: Breast cancer, HS 578T, 10 μM
[4] = test system: PC-3 prostate cancer cell line; test: SRB assay cell viability, PC-3 prostate cancer cell line; type: cell-based, human; conditions: Homo sapiens, PC-3 prostate cancer cell line, Table II prints no unit, μM printed, read-out: SRB assay: 50% inhibition of cancer cell proliferation of sample concentration (IC50) of PC-3 prostate cancer cell line
[5] = test system: IGROV1; test: NCI one-dose screening, ovarian cancer IGROV1; type: cell-based, human; conditions: IGROV1, 10 μM
[6] = test system: MDA-MB-468; test: NCI one-dose screening, breast cancer MDA-MB-468; type: cell-based, human; conditions: MDA-MB-468, 10 μM
[7] = test system: UACC-257; test: NCI one-dose screening, melanoma UACC-257; type: cell-based, human; conditions: UACC-257, 10 μM
[8] = test system: ACHN; test: NCI one-dose screening, renal cancer ACHN; type: cell-based, human; conditions: ACHN
[9] = test system: DU145; test: NCI one-dose screening, prostate cancer DU145; type: cell-based, human; conditions: DU145, 10 μM
[10] = test system: CAKI-1; test: NCI one-dose screening, renal cancer CAKI-1; type: cell-based, human; conditions: CAKI-1, 10 μM
[11] = test system: SNB-19; test: NCI one-dose screening, CNS cancer SNB-19; type: cell-based, human; conditions: SNB-19, 10 μM
[12] = test system: CCRF-CEM; test: NCI screening platform one-dose single concentration screening, leukemia CCRF-CEM; type: cell-based, human; conditions: CCRF-CEM
[13] = test system: MALME-3M; test: NCI one-dose screening, melanoma MALME-3M; type: cell-based, human; conditions: MALME-3M
[14] = test system: PRMI-8226 cell line; test: NCI one-dose screening, leukemia PRMI-8226; type: cell-based, human; conditions: RPMI-8226, 10 μM
[15] = test system: NCI-H226; test: NCI one-dose screening, non-small cell lung cancer NCI-H226; type: cell-based, human; conditions: NCI-H226, 10 μM
[16] = test system: U251; test: NCI one-dose screening, CNS cancer U251; type: cell-based, human; conditions: U251, 10 μM
[17] = test system: COLO 205; test: NCI one-dose screening, colon cancer COLO 205; type: cell-based, human; conditions: COLO 205, 10 μM
[18] = test system: HCC-2998; test: NCI one-dose screening, colon cancer HCC-2998; type: cell-based, human; conditions: HCC-2998, 10 μM
[19] = test system: SN12C; test: NCI one-dose screening, renal cancer SN12C; type: cell-based, human; conditions: SN12C
[20] = test system: NCl/ADR-RES; test: NCI one-dose screening, breast cancer NCl/ADR-RES; type: cell-based, human; conditions: Ovarian cancer, NCI/ADR-RES
[21] = test system: MCF7; test: NCI one-dose screening, breast cancer MCF7; type: cell-based, human; conditions: MCF7, 10 μM
[22] = test system: human tumor cell lines; test: NCI one-dose screening, mean, delta and range of growth percent over all cell lines tested; type: cell-based; conditions: for Growth Percent (10 μM), Delta: Delta over all cell lines tested; for Growth Percent (10 μM), Mean: Mean over all cell lines tested; for Growth Percent (10 μM), Range: Range over all cell lines tested
[23] = test system: NCI-H460; test: NCI one-dose screening, non-small cell lung cancer NCI-H460; type: cell-based, human; conditions: NCI-H460, 10 μM
[24] = test system: OVCAR-3; test: NCI one-dose screening, ovarian cancer OVCAR-3; type: cell-based, human; conditions: OVCAR-3, 10 μM
[25] = test system: TK-10; test: NCI one-dose screening, renal cancer TK-10; type: cell-based, human; conditions: TK-10, 10 μM
[26] = test system: KM12; test: NCI one-dose screening, colon cancer KM12; type: cell-based, human; conditions: KM12, 10 μM
[27] = test system: OVCAR-8; test: NCI one-dose screening, ovarian cancer OVCAR-8; type: cell-based, human; conditions: OVCAR-8, 10 μM
[28] = test system: HT29; test: NCI one-dose screening, colon cancer HT29; type: cell-based, human; conditions: HT29, 10 μM
[29] = test system: 786-O; test: NCI one-dose screening, renal cancer 786-O; type: cell-based, human; conditions: 786-0, 10 μM
[30] = test system: BT-549; test: NCI one-dose screening, breast cancer BT-549; type: cell-based, human; conditions: BT-549, 10 μM
[31] = test system: K562cell line; test: NCI one-dose screening, leukemia K562; type: cell-based, human; conditions: K562, 10 μM
[32] = test system: LOX IMVI; test: NCI one-dose screening, melanoma LOX IMVI; type: cell-based, human; conditions: LOX IMVI
[33] = test system: SK-MEL-5; test: NCI one-dose screening, melanoma SK-MEL-5; type: cell-based, human; conditions: SK-MEL-5, 10 μM
[34] = test system: OVCAR-4; test: NCI one-dose screening, ovarian cancer OVCAR-4; type: cell-based, human; conditions: OVCAR-4, 10 μM
[35] = test system: NCI-H522; test: NCI one-dose screening, non-small cell lung cancer NCI-H522; type: cell-based, human; conditions: NCI-H522, 10 μM
[36] = test system: SK-MEL-2; test: NCI one-dose screening, melanoma SK-MEL-2; type: cell-based, human; conditions: SK-MEL-2, 10 μM
[37] = test system: MDA-MB-231/ATCC; test: NCI one-dose screening, breast cancer MDA-MB-231/ATCC; type: cell-based, human; conditions: MDA-MB-231/ATCC
[38] = test system: NCI-H23; test: NCI one-dose screening, non-small cell lung cancer NCI-H23; type: cell-based, human; conditions: NCI-H23, 10 μM
[39] = test system: RXF, 393; test: NCI one-dose screening, renal cancer RXF, 393; type: cell-based, human; conditions: RXF 393, 10 μM
[40] = test system: OVCAR-5; test: NCI one-dose screening, ovarian cancer OVCAR-5; type: cell-based, human; conditions: OVCAR-5, 10 μM
[41] = test system: EKVX; test: NCI one-dose screening, non-small cell lung cancer EKVX; type: cell-based, human; conditions: EKVX
[42] = test system: PC-3; test: NCI one-dose screening, prostate cancer PC-3; type: cell-based, human; conditions: PC-3, 10 μM
[43] = test system: M14; test: NCI one-dose screening, melanoma M14; type: cell-based, human; conditions: M14, 10 μM

O=C1c2ccccc2C(=O)c2c1cc(N1CCCC1)c1nsnc21 [C7, 4-(pyrrolidine-1-yl)anthra-[2,1-c][1,2,5] thiadiazol-6,11-dione]
Growth Percent (10 μM) [1]: 95.64%
Growth Percent (10 μM) [2]: 97.27%
Growth Percent (10 μM) [3]: 101.62%
IC50 [4]: > 15 µM
Growth Percent (10 μM) [5]: 75.83%
Growth Percent (10 μM) [6]: 84.32%
Growth Percent (10 μM) [7]: 84.14%
Growth Percent (10 μM) [8]: 82.97%
Growth Percent (10 μM) [9]: 105.08%
Growth Percent (10 μM) [10]: 70.65%
Growth Percent (10 μM) [11]: 90.45%
Growth Percent (10 μM) [12]: 86.62%
Growth Percent (10 μM) [13]: 70.73%
Growth Percent (10 μM) [14]: 76.16%
Growth Percent (10 μM) [15]: 78.66%
Growth Percent (10 μM) [16]: 80.49%
Growth Percent (10 μM) [17]: 82.13%
Growth Percent (10 μM) [18]: 104.58%
Growth Percent (10 μM) [19]: 89.82%
Growth Percent (10 μM) [20]: 86.36%
Growth Percent (10 μM) [21]: 59.71%
Growth Percent (10 μM), Delta [22]: 54.57%
Growth Percent (10 μM), Mean [22]: 85.69%
Growth Percent (10 μM), Range [22]: 109.89%
Growth Percent (10 μM) [23]: 89.11%
Growth Percent (10 μM) [24]: 86.97%
Growth Percent (10 μM) [25]: 141.01%
Growth Percent (10 μM) [26]: 95.18%
Growth Percent (10 μM) [27]: 82.12%
Growth Percent (10 μM) [28]: 98.60%
Growth Percent (10 μM) [29]: 96.67%
Growth Percent (10 μM) [30]: 86.83%
Growth Percent (10 μM) [31]: 75.50%
Growth Percent (10 μM) [32]: 69.55%
Growth Percent (10 μM) [33]: 31.12%
Growth Percent (10 μM) [34]: 77.50%
Growth Percent (10 μM) [35]: 83.41%
Growth Percent (10 μM) [36]: 115.43%
Growth Percent (10 μM) [37]: 95.23%
Growth Percent (10 μM) [38]: 59.74%
Growth Percent (10 μM) [39]: 97.02%
Growth Percent (10 μM) [40]: 111.75%
Growth Percent (10 μM) [41]: 75.67%
Growth Percent (10 μM) [42]: 71.01%
Growth Percent (10 μM) [43]: 94.61%

CC(C)Sc1cc2c(c3nsnc13)C(=O)c1ccccc1C2=O [C18, 4-(isopropylthio)anthra[2,1-c][1,2,5] thiadiazol-6,11-dione]
Growth Percent (10 μM) [1]: −57.09%
Growth Percent (10 μM) [2]: −47.01%
Growth Percent (10 μM) [3]: −9.16%
IC50 [4]: 1.15 µM
Growth Percent (10 μM) [5]: −32.91%
Growth Percent (10 μM) [6]: −78.76%
Growth Percent (10 μM) [7]: −91.69%
Growth Percent (10 μM) [8]: 0.80%
Growth Percent (10 μM) [9]: 6.66%
Growth Percent (10 μM) [10]: −5.68%
Growth Percent (10 μM) [11]: 21.85%
Growth Percent (10 μM) [12]: −45.05%
Growth Percent (10 μM) [13]: −86.04%
Growth Percent (10 μM) [14]: −38.03%
Growth Percent (10 μM) [15]: 10.21%
Growth Percent (10 μM) [16]: −23.10%
Growth Percent (10 μM) [17]: 102.47%
Growth Percent (10 μM) [18]: 21.00%
Growth Percent (10 μM) [19]: −28.62%
Growth Percent (10 μM) [20]: −24.93%
Growth Percent (10 μM) [21]: −68.82%
Growth Percent (10 μM), Delta [22]: 78.36%
Growth Percent (10 μM), Mean [22]: −21.64%
Growth Percent (10 μM), Range [22]: 202.47%
Growth Percent (10 μM) [23]: 4.92%
Growth Percent (10 μM) [24]: −60.32%
Growth Percent (10 μM) [25]: 30.33%
Growth Percent (10 μM) [26]: 19.33%
Growth Percent (10 μM) [27]: −22.64%
Growth Percent (10 μM) [28]: 48.08%
Growth Percent (10 μM) [29]: 12.37%
Growth Percent (10 μM) [30]: 10.84%
Growth Percent (10 μM) [31]: −26.17%
Growth Percent (10 μM) [32]: −21.59%
Growth Percent (10 μM) [33]: −99.20%
Growth Percent (10 μM) [34]: −100.00%
Growth Percent (10 μM) [35]: −59.54%
Growth Percent (10 μM) [36]: −55.62%
Growth Percent (10 μM) [37]: −35.94%
Growth Percent (10 μM) [38]: −42.19%
Growth Percent (10 μM) [39]: 13.64%
Growth Percent (10 μM) [40]: −27.85%
Growth Percent (10 μM) [41]: −6.58%
Growth Percent (10 μM) [42]: −13.43%
Growth Percent (10 μM) [43]: −31.54%
